Legend:
Experiment in all cases: relative viability (nuclei count vs DMSO), 5 days (fraction); higher = more cells survive
[1] = tested on: NCI-H3122
How it was run: (§1)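 Relative viability is defined as nuclei in treated wells over nuclei in vehicle wells. Duplicate plates were run and medians reported. Lung cancer cell lines in 1536-well plates were dosed by pin tool one day after seeding, with one drug or with a fixed anchor-drug dose plus five library-drug doses (not always all listed) in √10 steps, and nuclei were counted after 5 days.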

[2] = tested on: HCC-44
How it was run: as §1

[3] = tested on: NCI-H1395
How it was run: as §1

[4] = tested on: NCI-H2087
How it was run: as §1

[5] = tested on: NCI-H23
How it was run: as §1

[6] = tested on: HARA
How it was run: as §1

[7] = tested on: NCI-H2009
How it was run: as §1

[8] = tested on: NCI-H441
How it was run: as §1

[9] = tested on: LOU-NH91
How it was run: as §1

[10] = tested on: NCI-H727
How it was run: as §1

[11] = tested on: LCLC-103H
How it was run: as §1

[12] = tested on: BEN
How it was run: as §1

[13] = tested on: NCI-H1993
How it was run: as §1

[14] = tested on: NCI-H2347
How it was run: as §1

[15] = tested on: 201T
How it was run: as §1

[16] = tested on: NCI-H838
How it was run: as §1

[17] = tested on: NCI-H2126
How it was run: as §1

[18] = tested on: NCI-H650
How it was run: as §1

[19] = tested on: NCI-H1666
How it was run: as §1

[20] = tested on: NCI-H2023
How it was run: as §1

[21] = tested on: EMC-BAC-2
How it was run: as §1

[22] = tested on: NCI-H647
How it was run: as §1

O=C(O)c1ccc(-c2c[nH]c3ncc(-c4ccccc4)cc23)cc1C1CCCC1 + CC(=O)c1c(C)c2cnc(Nc3ccc(N4CCNCC4)cn3)nc2n(C2CCCC2)c1=O [Palbociclib] (partner 0.5 µM)
relative viability ([1]; first compound 0.04 µM): 0.201
relative viability ([1]; first compound 0.1265 µM): 0.175
relative viability ([1]; first compound 0.4 µM): 0.174
relative viability ([1]; first compound 1.265 µM): 0.198
relative viability ([2]; first compound 0.04 µM): 0.967
relative viability ([2]; first compound 0.1265 µM): 0.938
relative viability ([2]; first compound 0.4 µM): 0.875
relative viability ([2]; first compound 1.265 µM): 0.805
relative viability ([3]; first compound 0.04 µM): 0.567
relative viability ([3]; first compound 0.1265 µM): 0.66
relative viability ([3]; first compound 0.4 µM): 0.618
relative viability ([3]; first compound 1.265 µM): 0.567
relative viability ([4]; first compound 0.04 µM): 0.214
relative viability ([4]; first compound 0.1265 µM): 0.267
relative viability ([4]; first compound 0.4 µM): 0.214
relative viability ([4]; first compound 1.265 µM): 0.248
relative viability ([5]; first compound 0.04 µM): 0.577
relative viability ([5]; first compound 0.1265 µM): 0.491
relative viability ([5]; first compound 0.4 µM): 0.483
relative viability ([5]; first compound 1.265 µM): 0.308
relative viability ([6]; first compound 0.04 µM): 0.308
relative viability ([6]; first compound 0.1265 µM): 0.267
relative viability ([6]; first compound 0.4 µM): 0.248
relative viability ([6]; first compound 1.265 µM): 0.216
relative viability ([7]; first compound 0.04 µM): 0.152
relative viability ([7]; first compound 0.1265 µM): 0.246
relative viability ([7]; first compound 0.4 µM): 0.175
relative viability ([7]; first compound 1.265 µM): 0.209
relative viability ([8]; first compound 0.04 µM): 0.248
relative viability ([8]; first compound 0.1265 µM): 0.232
relative viability ([8]; first compound 0.4 µM): 0.223
relative viability ([8]; first compound 1.265 µM): 0.22
relative viability ([9]; first compound 0.04 µM): 0.593
relative viability ([9]; first compound 0.1265 µM): 0.517
relative viability ([9]; first compound 0.4 µM): 0.525
relative viability ([9]; first compound 1.265 µM): 0.469
relative viability ([10]; first compound 0.04 µM): 0.676
relative viability ([10]; first compound 0.1265 µM): 0.662
relative viability ([10]; first compound 0.4 µM): 0.652
relative viability ([10]; first compound 1.265 µM): 0.638
relative viability ([11]; first compound 0.04 µM): 0.412
relative viability ([11]; first compound 0.1265 µM): 0.486
relative viability ([11]; first compound 0.4 µM): 0.465
relative viability ([11]; first compound 1.265 µM): 0.469
relative viability ([12]; first compound 0.04 µM): 0.459
relative viability ([12]; first compound 0.1265 µM): 0.422
relative viability ([12]; first compound 0.4 µM): 0.455
relative viability ([12]; first compound 1.265 µM): 0.454
relative viability ([13]; first compound 0.04 µM): 0.62
relative viability ([13]; first compound 0.1265 µM): 0.601
relative viability ([13]; first compound 0.4 µM): 0.596
relative viability ([13]; first compound 1.265 µM): 0.537
relative viability ([14]; first compound 0.04 µM): 0.453
relative viability ([14]; first compound 0.1265 µM): 0.446
relative viability ([14]; first compound 0.4 µM): 0.386
relative viability ([14]; first compound 1.265 µM): 0.438
relative viability ([15]; first compound 0.04 µM): 0.353
relative viability ([15]; first compound 0.1265 µM): 0.364
relative viability ([15]; first compound 0.4 µM): 0.341
relative viability ([15]; first compound 1.265 µM): 0.364
relative viability ([16]; first compound 0.04 µM): 0.189
relative viability ([16]; first compound 0.1265 µM): 0.267
relative viability ([16]; first compound 0.4 µM): 0.214
relative viability ([16]; first compound 1.265 µM): 0.215
relative viability ([17]; first compound 0.04 µM): 0.361
relative viability ([17]; first compound 0.1265 µM): 0.358
relative viability ([17]; first compound 0.4 µM): 0.369
relative viability ([17]; first compound 1.265 µM): 0.345
relative viability ([18]; first compound 0.04 µM): 0.32
relative viability ([18]; first compound 0.1265 µM): 0.344
relative viability ([18]; first compound 0.4 µM): 0.312
relative viability ([18]; first compound 1.265 µM): 0.279
relative viability ([19]; first compound 0.04 µM): 0.604
relative viability ([19]; first compound 0.1265 µM): 0.622
relative viability ([19]; first compound 0.4 µM): 0.609
relative viability ([19]; first compound 1.265 µM): 0.547
relative viability ([20]; first compound 0.04 µM): 0.407
relative viability ([20]; first compound 0.1265 µM): 0.394
relative viability ([20]; first compound 0.4 µM): 0.358
relative viability ([20]; first compound 1.265 µM): 0.312
relative viability ([21]; first compound 0.04 µM): 0.534
relative viability ([21]; first compound 0.1265 µM): 0.544
relative viability ([21]; first compound 0.4 µM): 0.529
relative viability ([21]; first compound 1.265 µM): 0.519
relative viability ([22]; first compound 0.04 µM): 0.399
relative viability ([22]; first compound 0.1265 µM): 0.434
relative viability ([22]; first compound 0.4 µM): 0.453
relative viability ([22]; first compound 1.265 µM): 0.33
